Laboratory results from US20240254087A1, “SELECTIVE, PARTIAL, AND ARRESTIN-BIASED 5-HT2A AGONISTS WITH UTILITY IN VARIOUS DISORDERS” (Saint Joseph's University, priority 2021, published 2024).
Read-outs that look alike come from different tables or passages of the source. Starred links: 1 amine or outer side, 2 acyl side, 3 side chain; linkers in the order of their positions; H or OH if unused. Positions of bridges follow the written chain, without caps; N, C: chain ends. Non-standard residues stand in square brackets, D forms with d. Residues, ends and D or L forms follow the SMILES beside them. X1 = CC(=O)NC(C(=O)OC(C(C)C)C(N[*:1])C(=O)[*:2])C(O)C(C)C; PhLac = O=C(O)[CH](O)Cc1ccccc1; NMeT = CN[CH](C(=O)O)[CH](C)O; NMeA = CN[CH](C)C(=O)O; NMeDha = C=C(NC)C(=O)O

What was measured:
5-HT2C = target: T1, 5-HT2C (Homo sapiens, UniProt P28335); assay: BRET Gq dissociation, 5-HT2C; assay type: cell-based; design: expressed in transfected cells; host or cells: HEK293T, transient
T1 sequence (P28335 33-458): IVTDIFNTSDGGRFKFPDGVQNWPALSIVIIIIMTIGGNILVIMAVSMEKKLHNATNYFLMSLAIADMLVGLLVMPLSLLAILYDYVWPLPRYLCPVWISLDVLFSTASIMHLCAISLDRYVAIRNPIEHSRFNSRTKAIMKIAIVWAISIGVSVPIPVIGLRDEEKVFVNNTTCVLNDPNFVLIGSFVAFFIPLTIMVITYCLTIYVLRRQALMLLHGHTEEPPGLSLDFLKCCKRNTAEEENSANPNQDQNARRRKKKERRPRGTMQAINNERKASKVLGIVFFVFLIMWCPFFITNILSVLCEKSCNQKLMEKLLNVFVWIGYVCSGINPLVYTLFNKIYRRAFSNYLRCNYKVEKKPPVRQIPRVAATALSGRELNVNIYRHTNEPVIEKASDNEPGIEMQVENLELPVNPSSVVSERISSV

5-HT2A [1] = target: T2, 5-HT2A (Homo sapiens, UniProt P28223); assay: cell-based; design: expressed in transfected cells; host or cells: HEK293T, transient
male C57BL/6J mice [2] = assay: Tolerance: DOI-induced HTR after 5 days repeated treatment; assay type: in vivo, mouse; conditions: 5 days SC: 25N-N1-Nap 20, DOI 10, pimavanserin 1 mg/kg/day
Description: (§1) The mice were allowed to recover from the magnet implantation surgeries for at least 1 week prior to behavioral testing. HTR experiments were conducted in a well-lit room, and the mice were allowed to habituate to the room for at least 1 h prior to testing. Head twitches was assessed in a 12-cm diameter glass cylinder surrounded by a magnetometer coil. Coil voltage was low-pass filtered (2 kHz), amplified, and digitized (20-kHz sampling rate) using a Powerlab/8SP with LabChart v 7.3.2 (ADInstruments, Colorado Springs, CO, USA). […] HTR counts were analyzed using one-way ANOVAs. Dunnett's test was used for post hoc comparisons.

5-HT2A [3] = target: T2, 5-HT2A; assay: NanoLuc internalization assay; assay type: cell-based; conditions: 60 min
5-HT2A [4] = target: T2, 5-HT2A; assay: cell-based; design: expressed in transfected cells; host or cells: HEK293T, transient; conditions: BRET, mean ± SEM; hydrochloride
5-HT2B = 5-HT2B (Homo sapiens, UniProt P41595); assay: BRET Gq dissociation, 5-HT2B; assay type: cell-based; design: expressed in transfected cells; host or cells: HEK293T, transient
5-HT2A [5] = target: T2, 5-HT2A; conditions: cited from earlier work
male C57BL/6J mice [6] = assay: Head-twitch response (HTR) in mice; assay type: in vivo, mouse; conditions: for ED50: Mus musculus
Method in brief: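 Head twitches in male C57BL/6J mice (6-8 weeks) carrying head-mounted magnets were detected with a magnetometer coil around a 12-cm glass cylinder during the dark phase. Coil signal was low-pass filtered at 2 kHz and digitized at 20 kHz. Counts were analyzed by one-way ANOVA with Dunnett's post hoc test.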

mice = assay: PCP-induced locomotor hyperactivity; assay type: in vivo, mouse; conditions: PCP 5 mg/kg IP, 25N-N1-Nap 3 mg/kg SC, M100907 0.03 mg/kg SC
Description: (A). DOI, a hallucinogen and 5-HT2A agonist, was administered IP 10 min after SC administration of vehicle or test drug. A and then HTR activity was assessed for 30 minutes. *p<0.001, significant difference vs. vehicle (B). Vehicle or the NMDA receptor antagonist PCP (5 mg/kg) was injected IP 10 min after SC administration of vehicle or 25N-NB1-Nap (16), and then the mice were placed in the test chambers 10 min later for a 60-min assessment of locomotor activity. (C). […] Mice were treated with vehicle or M100907 (0.03 mg/kg SC) 10 min prior to vehicle or PCP (5 mg/kg IP): animals were placed in the test chambers 10 min after treatment with PCP. Animals were tested for 60 min. *p<0.01 vs. vehicle: ^#p<0.01 vs. PCP alone.
(§2) Male C57BL/6J mice (6-8 weeks old) from Jackson Labs (Bar Harbor, ME, USA) were used for the behavioral experiments. The mice were housed on a reversed light-dark cycle (lights on at 1900 h, off at 0700 h) in an AAAC-approved vivarium at the University of California San Diego. Mice were housed up to four per cage in a climate-controlled room and with food and water provided ad libitum except during behavioral testing. Testing was performed between 1000 and 1800 h (during the dark phase of the light-dark cycle). The studies were conducted in accordance with National Institutes Health (NIH) guidelines and were approved by the University of California San Diego Institutional Animal Care and Use Committee.
Edelfosine, DOI, R—(−)-DOI, and PCP were injected IP (5 mL/kg): 25N—NB and its derivatives were injected SC (5 mL/kg or 10 mL/kg): YM-254,890 was injected into the lateral ventricle (2 μL) over 1 min.
The mouse behavioral pattern monitor (BPM) was used to assess locomotor activity. Each mouse BPM chamber (San Diego Instruments, San Diego, CA, USA) is a transparent Plexiglas box with an opaque 30×60 cm floor, enclosed in a ventilated isolation box. The position of the mouse in x.y coordinates is recorded by a grid of 12×24 infrared photobeams located 1 cm above the floor. A second row of 16 photobeams (parallel to the long axis of the chamber, located 2.5 cm above the floor) is used to detect rearing behavior. Holepoking behavior is detected by 11 1.4-cm holes that are situated in the walls (3 holes in each long wall, 2 holes in each short wall) and the floor ([…]); each hole is equipped with an infrared photobeam. The status of each photobeam is sampled every 55 ms and recorded for offline analysis. Locomotor activity was quantified as distance traveled, which was analyzed in 20-min blocks using a three-way ANOVA, with pretreatment and treatment as between subject variables and time as a within-subject variable. Tukey's studentized range method was used for post hoc comparisons.

male C57BL/6J mice [7] = assay: Blockade of agonist-induced HTR by pretreatment; assay type: in vivo, mouse; conditions: C57BL/6J mice; pretreatment with Gq/11 or phospholipase C inhibitor
Description: Vehicle or the NMDA receptor antagonist PCP (5 mg/kg) was injected IP 10 min after SC administration of vehicle or 25N-NB1-Nap (16), and then the mice were placed in the test chambers 10 min later for a 60-min assessment of locomotor activity. (C). […] Mice were treated with vehicle or M100907 (0.03 mg/kg SC) 10 min prior to vehicle or PCP (5 mg/kg IP): animals were placed in the test chambers 10 min after treatment with PCP.
as §2, §1

T2 sequence (P28223 whole entry): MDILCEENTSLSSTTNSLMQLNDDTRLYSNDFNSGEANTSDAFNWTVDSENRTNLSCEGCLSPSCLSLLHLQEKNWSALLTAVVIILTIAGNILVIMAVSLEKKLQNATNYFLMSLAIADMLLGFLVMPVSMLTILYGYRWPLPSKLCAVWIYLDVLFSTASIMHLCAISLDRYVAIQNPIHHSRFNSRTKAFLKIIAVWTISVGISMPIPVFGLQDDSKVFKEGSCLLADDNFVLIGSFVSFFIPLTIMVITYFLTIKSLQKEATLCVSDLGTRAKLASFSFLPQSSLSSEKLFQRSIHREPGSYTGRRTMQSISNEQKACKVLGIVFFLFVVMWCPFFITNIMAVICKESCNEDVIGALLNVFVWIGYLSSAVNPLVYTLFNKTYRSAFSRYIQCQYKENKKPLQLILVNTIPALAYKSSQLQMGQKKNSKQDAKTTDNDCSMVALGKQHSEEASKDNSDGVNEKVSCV
Chain of 5-HT2B (P41595 whole entry): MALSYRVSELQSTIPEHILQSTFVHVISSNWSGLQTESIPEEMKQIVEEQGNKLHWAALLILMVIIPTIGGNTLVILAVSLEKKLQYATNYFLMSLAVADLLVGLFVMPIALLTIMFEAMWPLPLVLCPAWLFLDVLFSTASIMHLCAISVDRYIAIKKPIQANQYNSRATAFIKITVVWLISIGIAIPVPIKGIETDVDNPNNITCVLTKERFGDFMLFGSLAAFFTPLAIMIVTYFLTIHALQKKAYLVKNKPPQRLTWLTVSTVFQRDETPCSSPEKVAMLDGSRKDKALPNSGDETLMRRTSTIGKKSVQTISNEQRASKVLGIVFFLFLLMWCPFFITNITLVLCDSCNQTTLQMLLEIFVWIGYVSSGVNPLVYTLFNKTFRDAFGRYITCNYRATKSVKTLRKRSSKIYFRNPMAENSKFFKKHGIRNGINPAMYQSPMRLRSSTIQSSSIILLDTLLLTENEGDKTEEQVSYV

COc1cc(CC(C)N)c(OC)cc1I.Cl (racemic) [(±)-DOI, (±)-2,5-dimethoxy-4-iodoamphetamine hydrochloride, reference compound]
EC50 (5-HT2C): 0.832 nM | Emax (5-HT2C; read-out: 5-HT2C Gq Dissociation (BRET) EMAX ± SEM (%5-HT)): 114 ± 3.4% | Emax (5-HT2A [1]; read-out: 5-HT2A β-arrestin Emax (% 5-HT), BRET, mean ± SEM): 88.8 ± 1.9% | Ability of DOI (1 mg/kg IP) to induce the HTR after repeated daily treatment (male C57BL/6J mice [2]): reduced significantly | Internalization of 5-HT2A receptors (5-HT2A [3]): strong internalization | 5-HT2A Gq Emax (% 5-HT) (5-HT2A [4]): 108.2 ± 4.2 % 5-HT | EC50 (5-HT2B): 12.6 nM | Emax (5-HT2B; read-out: 5-HT2B Gq Dissociation (BRET) EMAX ± SEM (%5-HT)): 103 ± 2.8% | Emax in a 5-HT2A-Gq calcium flux assay (5-HT2A [5]): 81.3% | Max HTR response during a 30-min assessment (maximum counts ÷ baseline response) (male C57BL/6J mice [6]): 9.9-fold increase | ED50 (male C57BL/6J mice [6]; read-out: HTR ED50 μmol/kg (95% CI), SC, except DOI and 25D-NBOMe IP): 0.8 µmol/kg | ED50 (male C57BL/6J mice [6]; read-out: HTR ED50 mg/kg (95% CI), SC, except DOI and 25D-NBOMe IP): 0.29 mg/kg

COc1cccc([C@H](O)C2CCN(CCc3ccc(F)cc3)CC2)c1OC [Compound M100907, reference compound]
Effect on PCP-induced locomotor hyperactivity (mice): blocks PCP induced hyperactivity | Effect on PCP-induced locomotor hyperactivity (mice; listed as M100,907): blocked

CCN(CC)C(=O)[C@@H]1C=C2c3cccc4[nH]cc(c34)C[C@H]2N(C)C1 [LSD, reference compound]
5-HT2A β-arrestin Emax (% 5-HT) (5-HT2A [1]; BRET, mean ± SEM): 85 ± 3 % 5-HT | Emax in a 5-HT2A-Gq calcium flux assay (5-HT2A [5]): 84.6%

CC(C)COc1ccc(CNC(=O)N(Cc2ccc(F)cc2)C2CCN(C)CC2)cc1 [Pimavanserin]
Ability of DOI (1 mg/kg IP) to induce the HTR after repeated daily treatment (male C57BL/6J mice [2]): not altered

C=C1C(=O)NC(C)C(=O)N(C)C(C)C(=O)NC(C(OC(=O)C(NC(C)=O)C(O)C(C)C)C(C)C)C(=O)N(C)C(C(C)OC)C(=O)OC(C)C(NC(C)=O)C(=O)OC(Cc2ccccc2)C(=O)N1C (stereo not drawn) [YM-254,890, reference compound] (Ac-T[PhLac][NMeDha]A[NMeA][X1][NMeT](Me); ester 1-C; configuration not given here)
Blockade of the HTR induced by (+/−)-DOI and 25N-NBOMe (male C57BL/6J mice [7]): blocked
